Data reported in the supplement of paper PMC10307832.

Legend:
Assay in all cases: relative viability (nuclei count vs DMSO), 5 days (fraction); higher = more cells survive
[1] = compound: Cc1ccc(-n2nc(C(C)(C)C)cc2NC(=O)Nc2ccc(OCCN3CCOCC3)c3ccccc23)cc1 [Doramapimod] + O=C(CCCCCCC(=O)Nc1ccccc1)NO [Vorinostat] (partner 1 µM)
Summary of the method: (§1)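 Dosing by pin tool came one day after lung cancer cell lines were seeded in 1536-well plates, using either one drug or a fixed anchor-drug dose plus five library-drug doses (not always all listed) in √10 steps. After 5 days, nuclei were counted on 4× images. Relative viability is treated-well nuclei count divided by vehicle-well nuclei count, and values are medians of duplicate plates.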

[2] = compound: Cn1c(Nc2ccc(C(F)(F)F)cc2)nc2cc(Oc3ccnc(-c4ncc(C(F)(F)F)[nH]4)c3)ccc21 [RAF265] + CS(=O)(=O)N1CCN(Cc2cc3nc(-c4cccc5[nH]ncc45)nc(N4CCOCC4)c3s2)CC1 [Pictilisib] (partner 1 µM)
Summary of the method: as §1

[3] = compound: C1=CC=C2C(=C1)C=CC(=C2SSC3=C(C=CC4=CC=CC=C43)O)O [IPA-3] + CCNC(=O)c1noc(-c2cc(C(C)C)c(O)cc2O)c1-c1ccc(CN2CCOCC2)cc1 [Luminespib] (partner 0.01 µM)
Summary of the method: as §1

[4] = compound: Cn1c(Nc2ccc(C(F)(F)F)cc2)nc2cc(Oc3ccnc(-c4ncc(C(F)(F)F)[nH]4)c3)ccc21 [RAF265] + O=C(CCCCCCC(=O)Nc1ccccc1)NO [Vorinostat] (partner 1 µM)
Summary of the method: as §1

Cell Line | relative viability ([1]; first compound 0.02 µM) | relative viability ([1]; first compound 0.06325 µM) | relative viability ([1]; first compound 0.2 µM) | relative viability ([1]; first compound 0.6325 µM) | relative viability ([1]; first compound 2 µM) | relative viability ([2]; first compound 0.01 µM) | relative viability ([2]; first compound 0.03162 µM) | relative viability ([2]; first compound 0.1 µM) | relative viability ([2]; first compound 0.3162 µM) | relative viability ([2]; first compound 1 µM) | relative viability ([3]; first compound 0.2 µM) | relative viability ([3]; first compound 0.6325 µM) | relative viability ([3]; first compound 2 µM) | relative viability ([3]; first compound 6.325 µM) | relative viability ([3]; first compound 20 µM) | relative viability ([4]; first compound 0.01 µM) | relative viability ([4]; first compound 0.03162 µM) | relative viability ([4]; first compound 0.1 µM) | relative viability ([4]; first compound 0.3162 µM) | relative viability ([4]; first compound 1 µM)
NCI-H2085 | 0.827 | 0.821 | 0.782 | 0.872 | 0.722 | 0.407 | 0.478 | 0.502 | 0.437 | 0.368 | 0.475 | 0.411 | 0.502 | 0.432 | 0.5 | 0.891 | 0.714 | 0.82 | 0.788 | 0.803
NCI-H2087 | 0.932 | 0.764 | 0.668 | 0.718 | 0.669 | 0.96 | 0.907 | 0.884 | 0.46 | 0.372 | 0.169 | 0.14 | 0.183 | 0.197 | 0.167 | 0.634 | 0.359 | 0.757 | 0.864 | 0.719
NCI-H2126 | 0.792 | 0.765 | 0.763 | 0.671 | 0.671 | 0.5 | 0.491 | 0.491 | 0.405 | 0.415 | 0.998 | 0.819 | 0.921 | 0.902 | 1.1 | 0.841 | 0.771 | 0.733 | 0.673 | 0.464
NCI-H2170 | 0.737 | 0.882 | 0.704 | 0.844 | 0.814 | 0.34 | 0.283 | 0.287 | 0.214 | 0.239 | 0.691 | 0.574 | 0.772 | 0.748 | 0.683 | 0.859 | 0.859 | 0.761 | 0.393 | 0.521
NCI-H2228 | 0.588 | 0.91 | 0.496 | 0.894 | 0.516 | 0.539 | 0.371 | 0.465 | 0.208 | 0.255 | 0.155 | 0.181 | 0.183 | 0.175 | 0.145 | 0.554 | 0.653 | 0.52 | 0.324 | 0.275
NCI-H2347 | 0.652 | 0.555 | 0.569 | 0.644 | 0.538 | 0.789 | 0.952 | 0.652 | 0.629 | 0.245 | 0.525 | 0.0323 | 0.357 | 0.269 | 0.45 | 0.611 | 0.517 | 0.564 | 0.458 | 0.344
NCI-H2405 | 1.1 | 1.12 | 1.22 | 0.958 | 1.02 | 0.529 | 0.473 | 0.397 | 0.368 | 0.231 | 0.722 | 0.599 | 0.688 | 0.666 | 0.762 | 1.02 | 0.888 | 1.08 | 0.683 | 0.465
NCI-H3122 | 1.13 | 1.07 | 1.12 | 0.849 | 0.859 | 0.586 | 0.831 | 0.575 | 0.452 | 0.301 | 0.0957 | 0.0861 | 0.108 | 0.074 | 0.116 | 1.02 | 1.01 | 0.93 | 0.965 | 0.631
PC-3 [JPC-3] | 0.967 | 1.39 | 1.22 | 0.564 | 0.744 | 0.686 | 0.676 | 0.727 | 0.333 | 0.417 | 0.742 | 0.666 | 0.719 | 0.641 | 0.801 | 0.942 | 0.78 | 1.08 | 0.455 | 0.487
PC-14 | 0.802 | 0.751 | 0.727 | 0.898 | 0.578 | 0.737 |  | 0.733 |  | 0.312 | 0.165 | 0.151 | 0.189 | 0.161 | 0.142 | 0.743 | 0.642 | 0.632 |  | 0.619
RERF-LC-KJ | 0.785 | 0.715 | 0.741 | 0.427 | 0.729 | 0.49 | 0.236 | 0.545 | 0.42 | 0.23 | 1.46 | 1.27 | 1.29 | 1.39 | 1.14 | 0.704 | 0.647 | 0.772 | 0.649 | 0.582
SK-LU-1 | 0.944 | 0.75 | 0.824 | 0.933 | 0.867 | 0.688 | 0.422 | 0.41 | 0.297 | 0.27 | 0.207 | 0.17 | 0.225 | 0.161 | 0.228 | 0.715 | 0.449 | 0.443 | 0.36 | 0.262
SK-MES-1 | 1.21 | 1.09 | 1.07 | 1.12 | 1.11 | 0.311 | 0.301 | 0.218 | 0.214 | 0.141 | 0.753 | 0.691 | 0.831 | 0.782 | 0.808 | 1.12 | 0.772 | 0.519 | 0.398 | 0.343
SW 1573 | 0.9 | 0.549 | 0.581 | 0.791 | 0.539 | 0.597 | 0.445 | 0.542 | 0.399 | 0.221 | 0.139 | 0.215 | 0.459 | 0.158 | 0.0643 | 1 | 0.763 | 0.834 | 0.792 | 0.582
